Measured values taken from the supplement of paper PMC10307832.

How the values were obtained:
Experiment in all cases: relative viability (nuclei count vs DMSO), 5 days (fraction); higher = more cells survive
Dovitinib + Alpelisib = compound: CN1CCN(c2ccc3nc(-c4c(N)c5c(F)cccc5[nH]c4=O)[nH]c3c2)CC1 [Dovitinib] + Cc1nc(NC(=O)N2CCC[C@H]2C(N)=O)sc1-c1ccnc(C(C)(C)C(F)(F)F)c1 [Alpelisib] (partner 2 µM)
Method in brief: (§1)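 Relative viability equals treated-well nuclei counts divided by vehicle-well nuclei counts. Counts came from 4× images of lung cancer cell lines grown in 1536-well plates for 5 days after pin-tool dosing on the day after seeding. Dosing used one drug alone or a fixed anchor-drug dose plus five library-drug doses (not always all listed) in √10 steps, and values are medians of duplicate plates.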

Dovitinib + Bortezomib = compound: CN1CCN(c2ccc3nc(-c4c(N)c5c(F)cccc5[nH]c4=O)[nH]c3c2)CC1 [Dovitinib] + CC(C)C[C@H](NC(=O)[C@H](Cc1ccccc1)NC(=O)c1cnccn1)B(O)O [Bortezomib] (partner 0.002 µM)
Method in brief: as §1

Dovitinib + Olaparib = compound: CN1CCN(c2ccc3nc(-c4c(N)c5c(F)cccc5[nH]c4=O)[nH]c3c2)CC1 [Dovitinib] + O=C(c1cc(Cc2n[nH]c(=O)c3ccccc23)ccc1F)N1CCN(C(=O)C2CC2)CC1 [Olaparib] (partner 8 µM)
Method in brief: as §1

Dovitinib + Pemetrexed = compound: CN1CCN(c2ccc3nc(-c4c(N)c5c(F)cccc5[nH]c4=O)[nH]c3c2)CC1 [Dovitinib] + Nc1nc2[nH]cc(CCc3ccc(C(=O)N[C@@H](CCC(=O)O)C(=O)O)cc3)c2c(=O)[nH]1 [Pemetrexed] (partner 0.2 µM)
Method in brief: as §1

Cell Line | relative viability (Dovitinib + Alpelisib; first compound 0.02 µM) | relative viability (Dovitinib + Alpelisib; first compound 0.06325 µM) | relative viability (Dovitinib + Alpelisib; first compound 0.2 µM) | relative viability (Dovitinib + Alpelisib; first compound 0.6325 µM) | relative viability (Dovitinib + Alpelisib; first compound 2 µM) | relative viability (Dovitinib + Bortezomib; first compound 0.02 µM) | relative viability (Dovitinib + Bortezomib; first compound 0.06325 µM) | relative viability (Dovitinib + Bortezomib; first compound 0.2 µM) | relative viability (Dovitinib + Bortezomib; first compound 0.6325 µM) | relative viability (Dovitinib + Bortezomib; first compound 2 µM) | relative viability (Dovitinib + Olaparib; first compound 0.02 µM) | relative viability (Dovitinib + Olaparib; first compound 0.06325 µM) | relative viability (Dovitinib + Olaparib; first compound 0.2 µM) | relative viability (Dovitinib + Olaparib; first compound 0.6325 µM) | relative viability (Dovitinib + Olaparib; first compound 2 µM) | relative viability (Dovitinib + Pemetrexed; first compound 0.02 µM) | relative viability (Dovitinib + Pemetrexed; first compound 0.06325 µM) | relative viability (Dovitinib + Pemetrexed; first compound 0.2 µM) | relative viability (Dovitinib + Pemetrexed; first compound 0.6325 µM) | relative viability (Dovitinib + Pemetrexed; first compound 2 µM)
LC-2-ad | 0.873 | 0.833 | 0.728 | 0.8 | 0.74 | 1.08 | 0.983 | 1.02 | 1.06 | 0.789 | 0.691 | 0.666 | 0.734 | 0.775 | 0.741 | 0.27 | 0.29 | 0.306 | 0.259 | 0.269
LCLC-97TM1 | 0.222 | 0.23 | 0.171 | 0.247 | 0.276 | 0.754 | 0.783 | 0.371 | 0.867 | 0.566 | 0.371 | 0.443 | 0.369 | 0.364 | 0.255 | 0.16 | 0.155 | 0.198 | 0.184 | 0.163
LCLC-103H | 0.875 | 0.973 | 0.918 | 1.06 | 0.761 | 1 | 1.07 | 1.01 | 0.987 | 1.13 | 0.765 | 0.763 | 0.751 | 0.759 | 0.718 | 0.494 | 0.457 | 0.475 | 0.434 | 0.459
LOU-NH91 | 0.818 | 0.73 | 0.714 | 0.75 | 0.765 | 0.433 | 0.502 | 0.479 | 0.585 | 0.401 | 0.94 | 0.922 | 0.93 | 0.907 | 0.948 | 0.368 | 0.386 | 0.404 | 0.363 | 0.358
LU99A | 0.492 | 0.561 | 0.43 | 0.461 | 0.559 | 1.15 | 1.08 | 0.987 | 1.05 | 1.32 | 0.256 | 0.279 | 0.275 | 0.276 | 0.281 | 0.169 | 0.304 | 0.165 | 0.217 | 0.18
LXF-289 | 1.01 | 1.02 | 1.02 | 1.03 | 0.926 | 0.924 | 1 | 1.02 | 0.935 | 0.968 | 0.974 | 1.08 | 1.07 | 1.1 | 0.976 | 0.883 | 0.893 | 0.864 | 0.962 | 0.894
NCI-H23 | 0.788 | 0.638 | 0.766 | 0.631 | 0.627 | 0.925 | 1.02 | 1.01 | 1.05 | 1.22 | 0.271 | 0.314 | 0.333 | 0.298 | 0.338 | 0.79 | 0.592 | 0.623 | 0.674 | 0.658
NCI-H322M | 0.84 | 0.774 | 0.792 | 0.809 | 0.776 | 1.21 | 1.21 | 1.19 | 1.12 | 1.16 | 0.727 | 0.697 | 0.74 | 0.858 | 0.881 | 0.597 | 0.613 | 0.634 | 0.607 | 0.6
NCI-H441 | 0.787 | 0.902 | 0.909 | 0.548 | 0.566 | 0.497 | 0.593 | 0.352 | 0.531 | 0.433 | 0.513 | 0.549 | 0.534 | 0.62 | 0.588 | 0.257 | 0.266 | 0.296 | 0.271 | 0.24
NCI-H460 | 0.421 | 0.562 | 0.524 | 0.395 | 0.426 | 1.01 | 1.2 | 1.09 | 1.11 | 1.08 | 0.372 | 0.488 | 0.403 | 0.426 | 0.411 | 0.0606 | 0.0581 | 0.0649 | 0.0683 | 0.0626
NCI-H520 | 0.794 | 0.988 | 0.935 | 0.86 | 0.769 | 0.527 | 0.725 | 0.63 | 0.488 | 0.348 | 0.358 | 0.315 | 0.332 | 0.33 | 0.389 | 0.687 | 0.683 | 0.615 | 0.596 | 0.635
NCI-H596 | 0.462 | 0.542 | 0.563 | 0.499 | 0.457 | 1.19 | 1.03 | 0.834 | 1.04 | 1.07 | 0.672 | 0.688 | 0.65 | 0.687 | 0.627 | 0.512 | 0.493 | 0.506 | 0.51 | 0.532
NCI-H647 | 0.966 | 1.15 | 1.34 | 1.19 | 0.961 | 0.993 | 1.08 | 1.13 | 0.897 | 0.667 | 0.578 | 0.538 | 0.5 | 0.418 | 0.675 | 0.194 | 0.189 | 0.154 | 0.191 | 0.177
NCI-H650 | 1.13 | 0.972 | 1.07 | 0.997 | 1.2 | 0.883 | 0.711 | 0.729 | 0.709 | 0.806 | 0.348 | 0.388 | 0.391 | 0.414 | 0.429 | 0.908 | 0.856 | 0.898 | 0.983 | 0.956
NCI-H661 | 0.706 | 0.661 | 0.885 | 0.898 | 0.573 | 0.852 | 0.746 | 0.937 | 0.934 | 0.85 | 0.68 | 0.749 | 0.738 | 0.774 | 0.752 | 0.888 | 0.927 | 0.935 | 0.878 | 0.949
NCI-H838 | 0.949 | 1.04 | 1.01 | 0.936 | 0.938 | 0.639 | 0.699 | 0.851 | 0.76 | 0.758 | 0.738 | 0.733 | 0.755 | 0.745 | 0.763 | 0.262 | 0.277 | 0.229 | 0.234 | 0.265
NCI-H1355 | 0.797 | 0.796 | 0.864 | 0.764 | 0.82 | 1.31 | 1.19 | 1.17 | 1.2 | 1.42 | 0.792 | 0.762 | 0.717 | 0.723 | 0.754 | 1.08 | 0.945 | 1.16 | 1.1 | 1.1
NCI-H1437 | 0.952 | 0.981 | 0.909 | 0.904 | 0.966 | 0.471 | 0.575 | 0.493 | 0.49 | 0.523 | 0.623 | 0.647 | 0.612 | 0.632 | 0.655 | 0.293 | 0.327 | 0.31 | 0.288 | 0.308
NCI-H1651 | 0.816 | 1.06 | 0.867 | 0.898 | 0.862 | 0.957 | 0.961 | 1.03 | 1.02 | 0.91 | 0.175 | 0.187 | 0.167 | 0.191 | 0.163 | 0.553 | 0.544 | 0.563 | 0.64 | 0.544
NCI-H1666 | 1.01 | 0.933 | 1.02 | 0.883 | 1.07 | 1 | 0.87 | 0.968 | 0.792 | 0.842 | 0.755 | 0.777 | 0.756 | 0.731 | 0.77 | 0.913 | 0.863 | 0.766 | 0.813 | 0.785
NCI-H1734 | 0.711 | 0.697 | 0.675 | 0.626 | 0.641 | 0.845 | 0.941 | 0.933 | 0.948 | 0.87 | 0.66 | 0.648 | 0.547 | 0.605 | 0.678 | 0.443 | 0.442 | 0.414 | 0.403 | 0.418
NCI-H1755 | 0.951 | 0.916 | 0.923 | 0.903 | 0.878 | 0.97 | 0.923 | 0.957 | 0.928 | 0.955 | 0.893 | 0.858 | 0.914 | 0.842 | 0.878 | 0.432 | 0.382 | 0.433 | 0.4 | 0.423
NCI-H1792 | 0.674 | 0.617 | 0.745 | 0.725 | 0.676 | 0.938 | 0.935 | 0.998 | 1.04 | 0.918 | 0.582 | 0.41 | 0.404 | 0.614 | 0.548 | 0.909 | 0.631 | 0.672 | 0.972 | 0.827
NCI-H1915 | 0.992 | 1.04 | 1.06 | 0.983 | 1.04 | 0.873 | 0.963 | 0.955 | 0.91 | 0.986 | 0.253 | 0.27 | 0.271 | 0.264 | 0.257 | 0.459 | 0.466 | 0.536 | 0.473 | 0.467
NCI-H1975 | 0.625 | 0.685 | 0.603 | 0.604 | 0.547 | 0.389 | 0.48 | 0.377 | 0.373 | 0.405 | 0.733 | 0.912 | 0.671 | 0.792 | 0.74 | 0.305 | 0.286 | 0.268 | 0.294 | 0.294
NCI-H1993 | 0.599 | 0.683 | 0.642 | 0.71 | 0.734 | 1.42 | 1.14 | 1.05 | 1.13 | 0.941 | 1.07 | 0.961 | 1.08 | 0.912 | 0.982 | 0.665 | 0.521 | 0.633 | 0.594 | 0.486
